Measured values: patent US10947196B2, “Beta adrenergic agonist and methods of using the same” (CURASEN THERAPEUTICS, INC., priority 2019, dated 2021)
Read-outs that look alike come from different tables or passages of the source.

What was measured:
[1] = Microsomal stability (dog); type: in vitro ADME; settings: liver microsomes 0.5 mg/mL; method gives CLint in μL/min/mg protein
Procedure: (§1) The master solution was prepared as follows.
(§2) With NADPH: 10 μL of 20 mg/mL liver microsomes and 40 μL of 10 mM NADPH were added to the incubations. The final concentrations of microsomes and NADPH were 0.5 mg/mL and 1 mM, respectively.
(§3) Without NADPH: 10 μL of 20 mg/mL liver microsomes and 40 μL of ultra-pure H2O were added to the incubations. The final concentration of microsomes was 0.5 mg/mL.
(§4) The reaction was started with the addition of 4 μL of 3, 10, 30 and 100 μM test compound solution or control compound solution at the final concentration of 0.03, 0.1, 0.3 and 1 μM and carried out at 37° C.
(§5) Aliquots of 50 μL were taken from the reaction solution at 0, 15, 30, 45 and 60 min. The reaction was stopped by the addition of 4 volumes of cold acetonitrile with IS (100 nM alprazolam, 200 nM labetalol, 200 nM caffeine and 2 μM ketoprofen). Samples were centrifuged at 3, 220 g for 40 minutes. Aliquot of 100 μL of the supernatant was mixed with 100 μL of ultra-pure H2O and then used for LC-MS/MS analysis.
(§6) Peak areas were determined from extracted ion chromatograms. The slope value, k, was determined by linear regression of the natural logarithm of the remaining percentage of the parent drug vs. incubation time curve.
(§7) The in vitro half-life (in vitro t1/2) was determined from the slope value: in vitro t1/2=−(0.693/k) […]

[2] = Microsomal stability (rat); type: in vitro ADME; settings: liver microsomes 0.5 mg/mL; method gives CLint in μL/min/mg protein
Procedure: as §1, §2, §3, §4, §5, §6, §7

[3] = Microsomal stability (human); type: in vitro ADME; settings: liver microsomes 0.5 mg/mL; method gives CLint in μL/min/mg protein
Procedure: as §1, §2, §3, §4, §5, §6, §7

B3-AR = B3-AR (Homo sapiens (Human), UniProt P13945); assay: cAMP potency assay, B3-AR expressing CHO-K1 cells; type: cell-based
[4] = molecular target: β2 adrenergic receptors in human astrocytoma cells (1321N1) (Homo sapiens (Human), UniProt P07550); assay: cAMP HTRF assay in human astrocytoma cells (1321N1); type: cell-based; settings: Endogenous receptor, 1321N1 cells
Summary of the method: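 Intracellular cAMP quantified by Eu-donor/d2-acceptor HTRF after 30 min compound exposure at 37° C in stimulation buffer with IBMX. Concentrations ran 10 μM top, 5-fold steps, 10 points. Cell lines: 1321N1 astrocytoma and CHO expressing β1 or β2; EC50 via four-parameter fit, relative efficacy against isoproterenol.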

[5] = read-out: Average pEC50 [Receptor subtype: B3-AR, Cell type: CHO-K1] (converted)

Chain of β2 adrenergic receptors in human astrocytoma cells (1321N1) (P07550 whole entry): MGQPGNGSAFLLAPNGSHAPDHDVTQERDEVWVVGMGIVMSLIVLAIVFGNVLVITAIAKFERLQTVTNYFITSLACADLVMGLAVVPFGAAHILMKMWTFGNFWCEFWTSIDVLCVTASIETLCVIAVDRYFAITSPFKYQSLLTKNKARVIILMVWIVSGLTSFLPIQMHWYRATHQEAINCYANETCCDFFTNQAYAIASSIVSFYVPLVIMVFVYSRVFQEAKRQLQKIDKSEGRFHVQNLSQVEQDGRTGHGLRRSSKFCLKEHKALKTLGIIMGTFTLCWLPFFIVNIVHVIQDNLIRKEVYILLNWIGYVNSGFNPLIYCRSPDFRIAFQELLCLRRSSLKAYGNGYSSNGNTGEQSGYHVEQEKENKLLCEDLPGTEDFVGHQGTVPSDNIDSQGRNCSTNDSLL
Chain of B3-AR (P13945 whole entry, species assumed): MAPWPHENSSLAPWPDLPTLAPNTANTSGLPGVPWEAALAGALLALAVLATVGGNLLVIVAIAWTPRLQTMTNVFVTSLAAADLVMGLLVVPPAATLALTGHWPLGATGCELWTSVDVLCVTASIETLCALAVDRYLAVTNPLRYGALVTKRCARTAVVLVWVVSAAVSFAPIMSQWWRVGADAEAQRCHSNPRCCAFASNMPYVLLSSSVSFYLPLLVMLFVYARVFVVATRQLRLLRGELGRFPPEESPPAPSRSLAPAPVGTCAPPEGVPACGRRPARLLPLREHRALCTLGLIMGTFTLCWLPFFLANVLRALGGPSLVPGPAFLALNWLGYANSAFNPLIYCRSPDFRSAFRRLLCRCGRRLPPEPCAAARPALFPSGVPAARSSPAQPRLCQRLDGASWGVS

Structure (SMILES) | Intrinsic clearance (CLint), dog liver microsomes [1] [µL/min/mg protein] | Microsomal stability, Rat [2] [µL/min/mg protein] | Microsomal stability, Human [3] [µL/min/mg protein] | EC50 (B3-AR; read-out: Average EC50 [Receptor subtype: B3-AR, Cell type: CHO-K1]) [nM] | EC50 (B3-AR; [5]) [nM] | Average pEC50 [Receptor subtype: Endogenous; Cell type: 1321N1] [4] | EC50 ([4]; read-out: Average EC50 [Receptor subtype: Endogenous, Cell type: 1321N1]) [nM] | EC50 ([4]; read-out: Average pEC50 [Receptor subtype: Endogenous, Cell type: 1321N1] (converted)) [nM]
CC(C)(C)NC[C@H](O)c1cccc(C(F)(F)F)n1 [Compound 03-3] | 7.99 | 3.48 | 3.49 | – | – | – | – | –
CC(C)(C)NC[C@H](O)c1cccc(C#N)n1 [Compound 03-5, (S)-6-(2-(tert-butylamino)-1-hydroxyethyl)picolinonitrile] | 4.32 | 2.53 | 2.96 | 100 to 1000 | > 1000 | C-B | 10 to 100 | –
Cc1ncccc1[C@@H](O)CNC(C)(C)C [Compound 03-115] | – | – | – | – | > 1000 | – | – | 100 to 1000
